Reference: publication PMC3914206

Tests used:
Format in all cases: binding
panel of 442 kinases [1] = target: T1, panel of 442 kinases (Homo sapiens, UniProt O14920); settings: Compound Concentration 10 µM
T1 construct: purchased KINOMEscan
T1 sequence (O14920 1-756): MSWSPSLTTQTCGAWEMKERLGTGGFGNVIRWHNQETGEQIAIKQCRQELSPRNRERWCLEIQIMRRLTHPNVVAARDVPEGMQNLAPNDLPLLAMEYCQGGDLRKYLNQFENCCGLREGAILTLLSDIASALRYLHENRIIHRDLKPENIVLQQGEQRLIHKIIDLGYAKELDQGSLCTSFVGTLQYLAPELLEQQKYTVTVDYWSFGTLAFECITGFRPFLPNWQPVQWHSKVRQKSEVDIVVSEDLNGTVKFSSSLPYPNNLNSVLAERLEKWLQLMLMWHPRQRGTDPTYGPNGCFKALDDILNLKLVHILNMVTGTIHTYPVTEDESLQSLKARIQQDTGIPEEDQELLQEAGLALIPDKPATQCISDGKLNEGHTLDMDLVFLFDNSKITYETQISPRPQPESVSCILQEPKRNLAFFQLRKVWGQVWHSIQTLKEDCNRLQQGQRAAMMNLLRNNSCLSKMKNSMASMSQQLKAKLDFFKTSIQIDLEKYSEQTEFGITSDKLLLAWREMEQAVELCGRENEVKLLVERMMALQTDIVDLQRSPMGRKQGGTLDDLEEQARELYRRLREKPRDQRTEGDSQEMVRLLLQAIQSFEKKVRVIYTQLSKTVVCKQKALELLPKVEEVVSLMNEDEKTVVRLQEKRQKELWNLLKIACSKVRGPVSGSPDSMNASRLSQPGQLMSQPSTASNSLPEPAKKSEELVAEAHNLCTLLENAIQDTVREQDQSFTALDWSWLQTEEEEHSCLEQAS
Source text: (§1) We assessed the selectivity of members of this scaffold using the KINOMEscan methodology across a near comprehensive panel of 442 kinases [[18,27]].

panel of 442 kinases [2] = target: T2, panel of 442 kinases (Homo sapiens, UniProt P21127); settings: Compound Concentration 10 µM
T2 construct: purchased KINOMEscan
T2 sequence (P21127 whole entry): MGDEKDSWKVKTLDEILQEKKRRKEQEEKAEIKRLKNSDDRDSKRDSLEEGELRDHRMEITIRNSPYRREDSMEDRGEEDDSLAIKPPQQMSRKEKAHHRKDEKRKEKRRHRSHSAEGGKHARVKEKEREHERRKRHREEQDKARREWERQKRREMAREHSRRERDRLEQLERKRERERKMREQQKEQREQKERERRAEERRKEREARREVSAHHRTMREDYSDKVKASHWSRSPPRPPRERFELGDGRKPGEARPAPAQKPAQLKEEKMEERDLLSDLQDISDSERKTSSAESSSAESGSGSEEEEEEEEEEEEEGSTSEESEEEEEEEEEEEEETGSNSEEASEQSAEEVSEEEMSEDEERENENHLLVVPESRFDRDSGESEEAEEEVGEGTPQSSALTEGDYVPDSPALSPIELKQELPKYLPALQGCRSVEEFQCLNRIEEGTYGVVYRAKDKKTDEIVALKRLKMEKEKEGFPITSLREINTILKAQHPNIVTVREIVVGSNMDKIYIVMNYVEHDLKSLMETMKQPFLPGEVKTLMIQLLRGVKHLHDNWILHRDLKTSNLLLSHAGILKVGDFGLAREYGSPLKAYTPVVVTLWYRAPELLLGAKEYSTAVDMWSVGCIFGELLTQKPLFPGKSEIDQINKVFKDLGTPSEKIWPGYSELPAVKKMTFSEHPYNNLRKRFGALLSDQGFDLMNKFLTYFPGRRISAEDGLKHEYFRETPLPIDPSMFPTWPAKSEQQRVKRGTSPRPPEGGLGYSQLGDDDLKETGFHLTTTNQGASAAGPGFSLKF
Source text: as §1

panel of 442 kinases [3] = target: T3, panel of 442 kinases (Homo sapiens, UniProt Q9H3Y6); settings: kinase SRMS; compound concentration 10 µM
T3 construct: purchased KINOMEscan
T3 sequence (Q9H3Y6 whole entry): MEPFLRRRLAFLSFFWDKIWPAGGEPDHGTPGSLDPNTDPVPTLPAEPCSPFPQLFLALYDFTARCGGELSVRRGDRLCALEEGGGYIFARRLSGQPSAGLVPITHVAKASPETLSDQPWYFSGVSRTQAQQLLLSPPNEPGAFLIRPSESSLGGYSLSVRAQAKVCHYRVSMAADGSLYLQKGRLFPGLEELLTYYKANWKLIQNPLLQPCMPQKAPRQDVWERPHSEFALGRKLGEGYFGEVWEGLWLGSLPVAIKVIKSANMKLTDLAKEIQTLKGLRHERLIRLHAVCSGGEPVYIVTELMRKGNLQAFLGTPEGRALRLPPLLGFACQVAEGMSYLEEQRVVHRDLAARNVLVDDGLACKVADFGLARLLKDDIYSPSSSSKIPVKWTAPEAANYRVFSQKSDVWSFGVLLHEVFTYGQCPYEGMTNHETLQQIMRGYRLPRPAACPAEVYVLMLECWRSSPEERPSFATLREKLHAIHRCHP
Source text: as §1

| SMILES | KINOMEscan: IKK-beta (panel of 442 kinases [1]) | KINOMEscan: CDC2L1 (panel of 442 kinases [2]) | % Ctrl, SRMS (panel of 442 kinases [3]) [% Ctrl] |
| --- | --- | --- | --- |
| COc1cc(C(=O)N2CCC(N3CCN(C)CC3)CC2)ccc1Nc1ncc2c(n1)N(C1CCCC1)c1ccccc1C(=O)N2C [Compound 25, 11-cyclopentyl-2-((2-methoxy-4-(4-(4-methylpiperazin-1-yl)piperidine-1-carbonyl)phenyl)amino)-5-methyl-5H-benzo[e]pyrimido[5,4-b][1,4]diazepin-6(11H)-one] | 100 | 81 | 100 |
| COc1cc(C(=O)N2CCC(N3CCN(C)CC3)CC2)ccc1Nc1ncc2c(n1)N1CCc3cccc(c31)C(=O)N2C [Compound 24] | – | – | 100 |
| COc1cc(C(=O)N2CCC(N3CCN(C)CC3)CC2)ccc1Nc1ncc2c(n1)N(C)c1ccccc1C(=O)N2C [15 (LRRK2-IN-1)] | 89 | 84 | 77 |
| CCOc1cc(C(=O)N2CCC(N3CCN(C)CC3)CC2)ccc1Nc1ncc2c(n1)N(C1CCCC1)c1ccccc1C(=O)N2C [Compound 26] | 99 | 100 | 82 |
